What was measured:
[1] = test system: MXT mouse mammary tumour; assay: In vivo antitumour effect on mice bearing MXT mouse mammary tumour; design: species or system CBA/Ca mice
Description: The MXT mouse mammary carcinoma contains ER and PgR proteins; furthermore, it contains also GnRH receptors; therefore, this in vivo tumour model is suitable for studying both the direct and indirect effects. The treatment of mice bearing MXT mammary tumour was commenced on the day following transplantation. […] Table VI The animals were daily treated in s.c. route starting from the day following transplantation of MXT mouse mammary tumour. […] MI-1544: 75 µg/day/animal; MI-1892: 75 µg/day/animal.

[2] = test system: Ishikawa; conditions: 30 µM active substance, conjugate, treated once
Description: The procedure of treatment was as follows. After trypsinization the cells, 400,000 cells of MCF-7, MDA-MB-231 human mammary carcinoma, PC3 human prostate carcinoma or Ishikawa human endometrium tumour each were passed into Petri dishes of 10 cm in diameter. Starting from the day following transfer, the cells were treated with the substances to be tested in solution prepared with the nutrient medium during the exponential growth phase. The cultures were treated with 1 to 50 µM (calculated for the total volume of the culture) or MI-1544 GnRH antagonist, MI-1892 chicken GnRH antagonist or SJ-1004 GnRH […] on the 7th day.

[3] = test system: MCF-7 xenograft; assay: In vivo antitumour effect on MCF-7 xenograft in immunosuppressed mice; design: species or system CBA/Ca mice; conditions: for rate of tumour growth / decrease in the tumour volume in comparison to controls: first study; for rate of tumour growth: conjugates 150 µg in every 3rd day, P-GFLG-OH daily s.c.; for decrease in the tumour volume in comparison to controls: end of 4th week, MI-1892 2 x 25 µg daily, conjugates 50 µg daily once; for tumour volume: 4th week of treatment; for Tumour volume as control (%): conjugates 1 x 50 µg; for Inhibition % (tumour growth): daily s.c.; for Volume (cm^3) of tumours / Weight (g) of tumours: after 6 week treatment, xenograft not given
Description: The immunosuppression of mice was carried out by using the method of Steel et al. [Br. J. Cancer, 37, 224-230 (1978)]. Immunosuppression and xeno-transplantation
CBA-Ca female mice of about 6 weeks old were thymectomized and then, after one week, they were irradiated with 60Co (whole body irradiation; the lethal dose is 9.5 Gray). Within 24 hours 3 to 5 x 10^5 myelocytes were injected into the animals. Beneath the skin of the immunosuppressed mice 2 x 10^7 tumour cells or, in the case of later passages, […] were implanted. […] The treatment with steroid hormone was stopped by at least one week before beginning the investigation.
In the case of MCF-7 tumours (xenografts) the examinations were carried out with passages being in the phase of the 37th and 38th, respectively, transplantations.
In the case of mice bearing MCF-7 xenograft, the treatment was begun in the 4th week following xeno-transplantation.
Recent investigations have begun on 28 animals bearing MCF-7 xenograft and on 28 animals bearing MDA-MB-231 xenograft. On animals bearing MCF-7 tumour the treatment was commenced in the 5th week following xeno-transplantation; the tumour volume was 205 to 225 mm^3. On animals bearing MDA-MB-231 tumour, the treatment was started in the 4th week after xeno-transplantation with a tumour volume of 140 to 150 mm^3. […] The control groups were daily treated with physiological saline s.c. (Each treated group consisting of 7 animals).

[4] = test system: PC3; assay: In vitro inhibition of cell proliferation (Example 19); assay type: cell-based, human; conditions: 30 µM active substance, conjugate, treated once
Method in brief: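 Starting from 400,000 cells per dish during exponential growth, cultures received GnRH antagonist analogues or lamprey GnRH-III at 1 to 50 µM every two days. Cell count determined on day 7.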

[5] = test system: Ishikawa human endometrium carcinoma cell line; assay: Inhibition of colony formation (dose-survival relation, Example 18); assay type: cell-based; conditions: for inhibition of colony formation: 30 to 50 µM
[6] = test system: PC3 human prostate carcinoma cell line; assay: as above; assay type: cell-based; conditions: for inhibition of colony formation: 30 to 50 µM
[7] = test system: MCF-7 human mammary carcinoma cell line; assay: as above; assay type: cell-based; conditions: treated once
[8] = test system: MDA-MB-231 human mammary carcinoma cell line; assay: as above; assay type: cell-based
[9] = test system: human tumour cell lines; assay: Inhibition of colony formation (Example 18), cell line not given; assay type: cell-based; conditions: 50 µM of the active substance; cell line not stated
Description: The investigation gives a precise information about the cell-damaging effect of the tested substance. In the case of cytostatics the cell-damaging effect is not cell-specific. […] One part of the arrested cells again go into the cycle, the other part may perish (apoptosis). […] The investigations were carried out on MCF-7 and MDA-MB-231 human mammary carcinoma cell lines, PC3 human prostate 15 carcinoma cell line and Ishikawa human endometrium carcinoma cell line. Three hundred cells were set into Petri dishes of 3.5 cm in diameter each. The treatment was carried out once, 24 hours following the explantation, then the colonies formed were counted after 9 to 12 days.

[10] = test system: cytosolic progesterone receptor (cPgR); conditions: animals bearing MCF-7 xenografts
[11] = MXT mouse mammary tumour, Treatment weeks: 13, 1x75 µg daily s.c.
[12] = MXT mouse mammary tumour, Treatment weeks: 20, 1x75 µg daily s.c.
[13] = MCF-7 xenograft, treatment week 2
[14] = MCF-7 xenograft, treatment week 4
[15] = MCF-7 xenograft, treatment week 6, MI-1892 2 x 25 µg

## Ac-D-Trp^1,3,D-Cpa^2, {Lys[n-poly(N-vinyl pyrrolidone-co-maleic acid)-Gly-Phe-Leu-Gly-]}^5, [a-Asp(DEA)]^6, D-Ala^10-GnRH [P-GFLG-1892]
[1]; [11]
  Inhibition %: 72%
  Tumour volume as control (%): 28%
[1]; [12]
  Inhibition %: 62%
  Tumour volume as control (%): 38%
[1]; day 9, 75 µg/day/animal s.c.
  Tumour volume (cm^3): 0.29 cm^3
  Tumour volume as control (%): 40%
[1]; day 11, 75 µg/day/animal s.c.
  Tumour volume (cm^3): 0.66 cm^3
  Tumour volume as control (%): 36%
[1]; day 13, 75 µg/day/animal s.c.
  Tumour volume (cm^3): 0.91 cm^3
  Tumour volume as control (%): 28%
[1]; day 17, 75 µg/day/animal s.c.
  Tumour volume (cm^3): 1.86 cm^3
  Tumour volume as control (%): 36%
[1]; day 18, 75 µg/day/animal s.c.
  Tumour volume (cm^3): 3.1 cm^3
  Tumour volume as control (%): 42%
[1]; day 20, 75 µg/day/animal s.c.
  Tumour volume (cm^3): 3.61 cm^3
  Tumour volume as control (%): 38%
[1]; day 24, 75 µg/day/animal s.c.
  Tumour volume (cm^3): 6.07 cm^3
  Tumour volume as control (%): 48%
[1]; day 26, 75 µg/day/animal s.c.
  Tumour volume (cm^3): 8.91 cm^3
  Tumour volume as control (%): 64%
[2]
  % Inhibition of cell division (proliferation): 91%
[3]; MCF-7 xenograft
  rate of tumour growth: not influenced
  decrease in the tumour volume in comparison to controls: 30%
  tumour volume: 2.428 cm^3
[3]; [13]
  Tumour volume as control (%): 70%
[3]; MCF-7 xenograft, treatment week 2, listed as 5. P-GFLG-1892
  Inhibition % (tumour growth): 30%
[3]; [14]
  Inhibition % (tumour growth): 37%
[3]; [15]
  Tumour volume as control (%): 57%
[3]; MCF-7 xenograft, treatment week 6, listed as 5. P-GFLG-1892
  Inhibition % (tumour growth): 43%
[3]
  Volume (cm^3) of tumours: 4.327 ± 0.379 cm^3
  Weight (g) of tumours: 4.0 ± 0.9 g
[4]
  % Inhibition of cell division (proliferation): 51%
[5]; 10 µM
  % Inhibition of colony formation: 72%
[5]; 30 µM
  % Inhibition of colony formation: 100%
[5]
  inhibition of colony formation: 100%
[6]; 10 µM
  % Inhibition of colony formation: 86%
[6]
  inhibition of colony formation: 100%
[7]; 10 µM (active substance)
  % Inhibition of colony formation: 60%
[7]; 50 µM (active substance)
  % Inhibition of colony formation: 93%
[8]; 10 µM
  % Inhibition of colony formation: 92%
[8]; 30 µM
  % Inhibition of colony formation: 100%
[9]
  inhibition on the colony formation / survival of the cells: 100%
[10]
  decrease of the uterus cPgR level: 23%

## Ac-D-Trp^1,3,D-Cpa^2,{Lys(n-poly-(N-vinylpyrrolidone-co-maleic acid)-Gly-Phe-Leu-Gly]}^6,D-Ala^10-GnRH [P-GFLG-1544]
[1]; [11]
  Inhibition %: 61%
  Tumour volume as control (%): 39%
[1]; [12]
  Inhibition %: 49%
  Tumour volume as control (%): 51%
[1]; day 9, 75 µg/day/animal s.c.
  Tumour volume (cm^3): 0.38 cm^3
  Tumour volume as control (%): 55%
[1]; day 11, 75 µg/day/animal s.c.
  Tumour volume (cm^3): 0.74 cm^3
  Tumour volume as control (%): 41%
[1]; day 13, 75 µg/day/animal s.c.
  Tumour volume (cm^3): 1.26 cm^3
  Tumour volume as control (%): 39%
[1]; day 17, 75 µg/day/animal s.c.
  Tumour volume (cm^3): 2.43 cm^3
  Tumour volume as control (%): 46%
[1]; day 18, 75 µg/day/animal s.c.
  Tumour volume (cm^3): 3.91 cm^3
  Tumour volume as control (%): 52%
[1]; day 20, 75 µg/day/animal s.c.
  Tumour volume (cm^3): 4.74 cm^3
  Tumour volume as control (%): 51%
[1]; day 24, 75 µg/day/animal s.c.
  Tumour volume (cm^3): 7.34 cm^3
  Tumour volume as control (%): 58%
[1]; day 26, 75 µg/day/animal s.c.
  Tumour volume (cm^3): 9.03 cm^3
  Tumour volume as control (%): 65%
[2]
  % Inhibition of cell division (proliferation): 95%
[3]; MCF-7 xenograft
  rate of tumour growth: not influenced
  decrease in the tumour volume in comparison to controls: 30%
  tumour volume: 1.806 cm^3
[3]; MCF-7 xenograft, 6th week
  tumour-free animals: a tumour-free animal was found
[3]; [13]
  Tumour volume as control (%): 70%
[3]; MCF-7 xenograft, treatment week 2, listed as 6. P-GFLG-1544
  Inhibition % (tumour growth): 30%
[3]; [14]
  Inhibition % (tumour growth): 49%
[3]; [15]
  Tumour volume as control (%): 51%
[3]; MCF-7 xenograft, treatment week 6, listed as 6. P-GFLG-1544
  Inhibition % (tumour growth): 49%
[3]
  Volume (cm^3) of tumours: 3.502 ± 0.321 cm^3
  Weight (g) of tumours: 4.8 ± 0.8 g
[4]
  % Inhibition of cell division (proliferation): 68.5%
[5]; 50 µM
  % Inhibition of colony formation: 100%
[5]
  inhibition of colony formation: 100%
[6]; 10 µM
  % Inhibition of colony formation: 100%
[6]; 50 µM
  % Inhibition of colony formation: 100%
[6]
  inhibition of colony formation: 100%
[7]; 10 µM (active substance)
  % Inhibition of colony formation: 85%
[7]; 50 µM (active substance)
  % Inhibition of colony formation: 100%
[8]; 10 µM
  % Inhibition of colony formation: 80%
[8]; 50 µM
  % Inhibition of colony formation: 100%
[9]
  inhibition on the colony formation / survival of the cells: 100%
[10]
  decrease of the uterus cPgR level: 54%
